Patent US20220401440A1, “DOSING REGIMENS FOR A PROTEIN KINASE C INHIBITOR” (IDEAYA BIOSCIENCES, INC., priority 2019, published 2022)
Values joined by “and” are separate entries in the source; they are usually repeats but may differ in a detail not shown here. Equal values may be shown once. Read-outs that look alike come from different tables or passages of the source.

Assay: Phase 1/2 study: plasma pharmacokinetics of Compound (I) in patients (LC-MS/MS, non-compartmental analysis)
Format: in vivo, human
Conditions: for Race: mean ± SD
Description: The following example presents a phase 1/2 study of Compound (I) in patients with solid tumors harboring GNAQ/11 mutations or PRKC fusions.
Patients with MUM were sequentially enrolled into Cohort 1 or Cohort 2. Enrollment into Cohort 2 was not initiated until enrollment into Cohort 1 was completed and the dose considered safe. • a. Cohort 1. 6 patients were sequentially enrolled and received 300 mg twice a day (BID), daily, for 28-day treatment cycles. • b. Cohort 2. 6 patients were sequentially enrolled and received 400 mg BID, preceded by an initial 7-day 200 mg BID run-in period, for 28-day treatment cycles. All patients continue to receive treatment with Compound (I) unless the subject experiences one or more of the following: • Adverse event • Lost to follow-up • Physician decision • Progressive disease • Study termination by the Sponsor • Patient/guardian decision • Protocol deviation • Non-compliance with protocol • Death • Pregnancy NUMBER OF SUBJECTS: 12 patients
The following example presents pharmacokinetic results from the study as described in Example 1.
Blood samples were collected on Cycle 1 Day 1 and Day 15 from patients who were administered 300 mg BID of Compound (I), and on Cycle 1 Day 8 and Day 22 from patients who were administered 200 mg BID for 7 days followed by 400 mg BID of Compound (I) for the remainder of the treatment cycle. The plasma samples were processed by protein precipitation (see Ahuja S and Dong M. W, Handbook of Pharmaceutical Analysis by HPLC, Elsevier Inc., Chapter 17, page 433, 2005) and analyzed using an LC-MS/MS method; Quantification was achieved using Compound (I) peak area to internal standard (3-amino-N-(3-(4-amino-4-(methyl-d3)piperidin-1-yl)pyridin-2-yl)-6-(3-(trifluoromethyl)pyridin-2-yl)pyrazine-2-carboxamide) peak area ratios. Concentrations of the calibration curve standards, quality control samples, and patient samples were determined by the method of 1/x^2 weighted least squares linear regression.
The Pharmacokinetic parameters were calculated using Phoenix WinNonlin software (non-compartmental analysis).

[1] = individual patients, 300 mg BID
[2] = individual patients, 300 mg BID, C1 Day 1
[3] = individual patients, 300 mg BID, C1 Day 15
[4] = individual patients, 400 mg BID with 200 mg run-in
[5] = individual patients, 400 mg BID with 200 mg run-in, C1 Day 8
[6] = individual patients, 400 mg BID with 200 mg run-in, C1 Day 22

Structure (SMILES): CC1(N)CCN(c2cccnc2NC(=O)c2nc(-c3ncccc3C(F)(F)F)cnc2N)CC1 [Compound (I), 3-amino-N-(3-(4-amino-4-methylpiperidin-1-yl)pyridin-2-yl)-6-(3-(trifluoromethyl)pyridin-2-yl)pyrazine-2-carboxamide]
- Free AUC0-12 (mean free plasma) (300 mg BID): 260 ± 95 ng·h/mL
- Cmin (300 mg BID, Cycle 1 Day 15, mean ± SD, n = 12): 790 ± 345 ng/mL
- Race (300 mg BID, n = 12): 0.74 ± 0.31
- Free AUC0-12 (mean free plasma) (400 mg BID with 200 mg run-in): 396 ± 222 ng·h/mL
- Cmin (400 mg BID with 200 mg run-in, Cycle 1 Day 22, mean ± SD, n = 24): 1120 ± 806 ng/mL
- Race (400 mg BID with 200 mg run-in, n = 24): 0.97 ± 0.29
- mean exposure on C1D8 (200 mg BID 7 days then 400 mg BID) compared to C1D1 of 300 mg BID (human, in vivo): lower mean exposure
- mean free plasma AUC0-12, higher at 400 mg BID with 200 mg run-in than at 300 mg BID (human, in vivo): about 44%
- AUC(0-t) (human, plasma, oral, 300 mg, 300 mg BID, Cycle 1 Day 1, mean ± SD, n = 12, read-out: AUC0-12): 26200 ± 11100 ng·h/mL
- Cmax (human, plasma, oral, 300 mg, 300 mg BID, Cycle 1 Day 1, mean ± SD, n = 12, read-out: Cmax): 4600 ± 2300 ng/mL
- AUC(0-t) (human, plasma, oral, 300 mg, 300 mg BID, Cycle 1 Day 15, mean ± SD, n = 12, read-out: AUC0-12): 16800 ± 5380 ng·h/mL
- Cmax (human, plasma, oral, 300 mg, 300 mg BID, Cycle 1 Day 15, mean ± SD, n = 12, read-out: Cmax): 2860 ± 690 ng/mL
- AUC(0-t) (human, plasma, oral, 300 mg, individual patient 10001-00022, 300 mg BID, C1 Day 1 (footnote a: AUC0-8), read-out: AUC0-8): 35900 ng·h/mL
- AUC(0-t) (human, plasma, oral, 400 mg BID, 400 mg BID with 200 mg run-in, Cycle 1 Day 8, mean ± SD, n = 24, read-out: AUC0-12): 24400 ± 12100 ng·h/mL
- Cmax (human, plasma, oral, 400 mg BID, 400 mg BID with 200 mg run-in, Cycle 1 Day 8, mean ± SD, n = 24, read-out: Cmax): 3930 ± 1880 ng/mL
- AUC(0-t) (human, plasma, oral, 400 mg BID, 400 mg BID with 200 mg run-in, Cycle 1 Day 22, mean ± SD, n = 24, read-out: AUC0-12): 21500 ± 10800 ng·h/mL
- Cmax (human, plasma, oral, 400 mg BID, 400 mg BID with 200 mg run-in, Cycle 1 Day 22, mean ± SD, n = 24, read-out: Cmax): 3580 ± 1390 ng/mL
- AUC ratio D15/D1 [1]: 0.83 and 0.87 and 1.53 and 0.67 and 1.1 and 0.66 (2×) and 0.44 and 0.51 and 0.41 and 0.62 and 1.22 and 0.61
- Cmin on C1D15 [1]: 645 ng/mL and 626 ng/mL and 175 ng/mL and 792 ng/mL and 1075 ng/mL and 1212 ng/mL and 1088 ng/mL and 798 ng/mL and 322 ng/mL and 1337 ng/mL and 1549 ng/mL and 715 ng/mL and 699 ng/mL
- AUC0-12 [2]: 22974 ng·h/mL and 17983 ng·h/mL and 3597 ng·h/mL and 22480 ng·h/mL and 19439 ng·h/mL and 43190 ng·h/mL and 35321 ng·h/mL and 26969 ng·h/mL and 39949 ng·h/mL and 233274 ng·h/mL and 26345 ng·h/mL and 19768 ng·h/mL
- Cmax [2]: 3159 ng/mL and 2980 ng/mL and 607 ng/mL and 3147 ng/mL and 4367 ng/mL and 8940 ng/mL and 7009 ng/mL and 5386 ng/mL and 6252 ng/mL and 5549 ng/mL and 3866 ng/mL and 5523 ng/mL and 2256 ng/mL
- Tmax [2]: 4 h and 2 h and 1 h and 0.5 h
- AUC0-12 [3]: 19049 ng·h/mL and 15640 ng·h/mL and 5511 ng·h/mL and 15071 ng·h/mL and 21194 ng·h/mL and 23600 ng·h/mL and 19185 ng·h/mL and 17909 ng·h/mL and 10949 ng·h/mL and 24582 ng·h/mL and 28493 ng·h/mL and 16155 ng·h/mL and 13083 ng·h/mL
- Cmax [3]: 3965 ng/mL and 2149 ng/mL and 1392 ng/mL and 3079 ng/mL and 2984 ng/mL and 3442 ng/mL and 2782 ng/mL and 2574 ng/mL and 2969 ng/mL and 3618 ng/mL and 4203 ng/mL and 2348 ng/mL and 2971 ng/mL
- Tmax [3]: 0.5 h and 1 h and 2 h
- AUC ratio D22/D8 [4]: 1.3 (3×) and 1.1 (2×) and 0.84 and 0.66 and 0.75 and 1.0 (3×) and 0.85 and 0.95 and 0.59 and 0.88 and 1.5 and 0.42 and 1.2 and 0.64 and 0.70 and 1.4
- Cmin on C1D22 [4]: 1019 ng/mL and 969 ng/mL and 931 ng/mL and 497 ng/mL and 533 ng/mL and 674 ng/mL and 916 ng/mL and 777 ng/mL and 179 ng/mL and 1631 ng/mL and 334 ng/mL and 1110 ng/mL and 264 ng/mL and 3140 ng/mL and 1082 ng/mL and 1887 ng/mL and 478 ng/mL and 1912 ng/mL and 1592 ng/mL and 2909 ng/mL and 677 ng/mL
- AUC0-12 [5]: 17779 ng·h/mL and 19720 ng·h/mL and 22367 ng·h/mL and 23416 ng·h/mL and 16365 ng·h/mL and 28796 ng·h/mL and 13072 ng·h/mL and 56156 ng·h/mL and 22089 ng·h/mL and 23178 ng·h/mL and 18745 ng·h/mL and 6311 ng·h/mL and 38119 ng·h/mL and 13309 ng·h/mL and 22361 ng·h/mL and 10348 ng·h/mL and 32689 ng·h/mL and 48672 ng·h/mL and 23856 ng·h/mL and 17650 ng·h/mL and 43163 ng·h/mL and 23378 ng·h/mL and 30601 ng·h/mL and 13604 ng·h/mL
- Cmax [5]: 2068 ng/mL and 2948 ng/mL and 2077 ng/mL and 7600 ng/mL and 2121 ng/mL and 2580 ng/mL and 1949 ng/mL and 7450 ng/mL and 3838 ng/mL and 6560 ng/mL and 4478 ng/mL and 1922 ng/mL and 6872 ng/mL and 4037 ng/mL and 2949 ng/mL and 2603 ng/mL and 3474 ng/mL and 7043 ng/mL and 2520 ng/mL and 2531 ng/mL and 4952 ng/mL and 4452 ng/mL and 4329 ng/mL and 3053 ng/mL
- Tmax [5]: 2 h and 1 h and 6 h and 0.5 h and 4 h
- AUC0-12 [6]: 22282 ng·h/mL and 21010 ng·h/mL and 18847 ng·h/mL and 15424 ng·h/mL and 12278 ng·h/mL and 13221 ng·h/mL and 18705 ng·h/mL and 20068 ng·h/mL and 6604 ng·h/mL and 36219 ng·h/mL and 7788 ng·h/mL and 19634 ng·h/mL and 10656 ng·h/mL and 48381 ng·h/mL and 20635 ng·h/mL and 28583 ng·h/mL and 11327 ng·h/mL and 30027 ng·h/mL and 32888 ng·h/mL and 38889 ng·h/mL and 18178 ng·h/mL
- Cmax [6]: 2556 ng/mL and 2756 ng/mL and 1709 ng/mL and 5026 ng/mL and 2562 ng/mL and 1911 ng/mL and 2853 ng/mL and 2578 ng/mL and 5948 ng/mL and 2203 ng/mL and 2403 ng/mL and 1992 ng/mL and 5663 ng/mL and 5314 ng/mL and 3276 ng/mL and 4296 ng/mL and 5657 ng/mL and 5617 ng/mL and 3676 ng/mL and 3890 ng/mL
